Experimental data published in US10829520B2, “Beta-hairpin peptidomimetics” (POLYPHOR AG, priority 2015, dated 2020).
Where a SMILES comes first, the peptide text is derived from it. Bridges are numbered along the chain shown (N, C = ends). Roman numbers before positions name the chains, in order. [ ]: non-standard residue; d: D form. Hyp = O=C(O)[C@@H]1C[C@@H](O)CN1; NMeDab = CN[C@@H](CCN)C(=O)O; Tle = CC(C)(C)[C@H](N)C(=O)O; dDab = NCC[C@@H](N)C(=O)O; Dab = NCC[C@H](N)C(=O)O; dAze = O=C(O)[C@H]1CCN1; Dap = NC[C@H](N)C(=O)O

How the values were obtained:
Format in all cases: cell-based
[1] = system: Acinetobacter baumannii DSM 30008; conditions: DSM 30008
Outline: (§1)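 Read-out is the minimal inhibitory concentration in μg/mL, taken as the lowest peptide level without visible growth after 18-20 h at 35° C. Testing followed CLSI broth microdilution in cation-adjusted Mueller-Hinton II broth plus 0.002% Polysorbate 80, with roughly 10^6 CFU/mL.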

Escherichia coli 926415 = conditions: 926415
[2] = system: Pseudomonas aeruginosa ATCC 27853; conditions: ATCC 27853
Outline: as §1

[3] = system: Escherichia coli ATCC 25922; conditions: ATCC 25922
Outline: as §1

[4] = system: Acinetobacter baumannii 872842; conditions: 872842
[5] = system: Klebsiella pneumoniae SSI #3010; conditions: SSI #3010
Outline: as §1

[6] = system: Klebsiella pneumoniae 968733; conditions: 968733
[7] = system: human red blood cells (hRBC); assay: Hemolysis of human red blood cells; conditions: red cells of human, 1 h, 100
Outline: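 Hemolysis was read as supernatant absorbance at 540 nm and expressed as a percentage of Triton X-100 (2.5%) lysis. Washed human red cells (20% v/v) had been exposed to each peptide at 100 μg/mL for 1 h at 37° C.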

Row | SMILES | Acinetobacter baumannii DSM 30008 MIC [1] [µg/mL] | Escherichia coli 926415 MIC (Escherichia coli 926415) [µg/mL] | Pseudomonas aeruginosa ATCC 27853 MIC [2] [µg/mL] | Escherichia coli ATCC 25922 MIC [3] [µg/mL] | Acinetobacter baumannii 872842 MIC [4] [µg/mL] | Klebsiella pneumoniae SSI #3010 MIC [5] [µg/mL] | Klebsiella pneumoniae 968733 MIC [6] [µg/mL] | Hemolysis at 100 μg/mL [7] [%]
1 | CC(C)C[C@@H]1NC(=O)[C@@H](CC(C)C)NC(=O)[C@H](CCN)NC(=O)[C@@H](NC(=O)[C@H](CCN)NC(=O)[C@@H](NC(=O)[C@H](CCN)NC(=O)CC[C@@H]2NC(=O)[C@H](CCN)NC(=O)[C@H](Cc3ccc(O)cc3)NC(=O)[C@H](CN)NC(=O)[C@H](C(C)C)NC(=O)[C@@H]3CCCN3C(=O)[C@H]3CCCN3C(=O)[C@H](CO)NC(=O)[C@H](C)NC(=O)[C@H](C(C)C)NC(=O)[C@H](CCN)NC(=O)[C@H](Cc3c[nH]c4ccccc34)NC(=O)[C@H](CCN)NC(=O)[C@@H](CCN)NC2=O)[C@@H](C)O)CCNC(=O)[C@H]([C@@H](C)O)NC(=O)[C@H](CCN)NC(=O)[C@H](CCN)NC1=O [Ex. 85] (I: cyclo(V[Dap]Y[Dab]E[dDab][Dab]W[Dab]VAS[dP]P) / II: [Dab]T[Dab][Dab][Dab][dL]L[Dab][Dab]T; amide I:5-II:N; lactam II:4-II:C) | 1 | 2 | 1 | 1 | 1 | 2 | 8 | <1
2 | CC(C)C[C@@H]1NC(=O)[C@@H](Cc2ccccc2)NC(=O)[C@H](CCN)NC(=O)[C@@H](NC(=O)[C@H](CCN)NC(=O)[C@@H](NC(=O)[C@H](CCN)NC(=O)CC[C@@H]2NC(=O)[C@H](CCN)NC(=O)[C@H](Cc3ccc(O)cc3)NC(=O)[C@@H]3CCNC(=O)C[C@H](NC(=O)[C@H](C(C)(C)C)NC(=O)[C@H](CCN)NC(=O)[C@H](Cc4c[nH]c5ccccc45)NC(=O)[C@H](CCN)NC(=O)[C@@H](CCN)NC2=O)C(=O)N[C@@H]([C@@H](C)O)C(=O)N2CC[C@@H]2C(=O)N2CCC[C@H]2C(=O)N[C@@H](C(C)C)C(=O)N3)[C@@H](C)O)CCNC(=O)[C@H]([C@@H](C)O)NC(=O)[C@H](CCN)NC(=O)[C@H](CCN)NC1=O [Ex. 86] (I: cyclo(DT[dAze]PV[Dab]Y[Dab]E[dDab][Dab]W[Dab][Tle]) / II: [Dab]T[Dab][Dab][Dab][dF]L[Dab][Dab]T; lactam I:1-I:6, II:4-II:C; amide I:9-II:N) | 1 | 0.25 | 0.5 | 0.25 | 0.5 | 0.25 | 0.5 | 1
3 | CC(C)C[C@@H]1NC(=O)[C@@H](CC(C)C)NC(=O)[C@H](CCN)NC(=O)[C@@H](NC(=O)[C@H](CCN)NC(=O)[C@@H](NC(=O)[C@H](CCN)NC(=O)CC[C@@H]2NC(=O)[C@H](CCN)NC(=O)[C@H](Cc3ccc(O)cc3)NC(=O)[C@@H]3CCNC(=O)C[C@H](NC(=O)[C@H](C(C)(C)C)NC(=O)[C@H](CCN)NC(=O)[C@H](Cc4c[nH]c5ccccc45)NC(=O)[C@H](CCN)NC(=O)[C@@H](CCN)NC2=O)C(=O)N[C@@H]([C@@H](C)O)C(=O)N2CC[C@@H]2C(=O)N2CCC[C@H]2C(=O)N[C@@H](C(C)C)C(=O)N3)[C@@H](C)O)CCNC(=O)[C@H]([C@@H](C)O)NC(=O)[C@H](CCN)NC(=O)[C@H](CCN)NC1=O [Ex. 87] (I: cyclo(W[Dab][Tle]DT[dAze]PV[Dab]Y[Dab]E[dDab][Dab]) / II: [Dab]T[Dab][Dab][Dab][dL]L[Dab][Dab]T; lactam I:4-I:9, II:4-II:C; amide I:12-II:N) | 0.25 | 0.125 | 0.25 | 0.125 | 0.5 | 0.25 | 0.25 | <1
4 | CC(C)C[C@@H]1NC(=O)[C@@H](CC(C)C)NC(=O)[C@H](CCN)NC(=O)[C@@H](NC(=O)[C@H](CCN)NC(=O)[C@@H](NC(=O)[C@H](CCN)NC(=O)CC[C@@H]2NC(=O)[C@H](CCN)NC(=O)[C@H](Cc3ccc(O)cc3)NC(=O)[C@H](CO)NC(=O)[C@H](CC(C)C)NC(=O)[C@@H]3C[C@@H](O)CN3C(=O)[C@@H](C)NC(=O)[C@H](CO)NC(=O)[C@H]([C@@H](C)O)NC(=O)[C@H](C(C)C)NC(=O)[C@H](CCN)NC(=O)[C@H](Cc3c[nH]c4ccccc34)NC(=O)[C@H](CCN)NC(=O)[C@@H](CCN)NC2=O)[C@@H](C)O)CCNC(=O)[C@H]([C@@H](C)O)NC(=O)[C@H](CCN)NC(=O)[C@H](CCN)NC1=O [Ex. 88] (I: cyclo([Dab]E[dDab][Dab]W[Dab]VTS[dA][Hyp]LSY) / II: [Dab]T[Dab][Dab][Dab][dL]L[Dab][Dab]T; amide I:2-II:N; lactam II:4-II:C) | 0.5 | 1 | 0.5 | 0.125 | 1 | 0.25 | 2 | 1
5 | CC(C)C[C@@H]1NC(=O)[C@@H](CC(C)C)NC(=O)[C@H](CCN)NC(=O)[C@@H](NC(=O)[C@H](CCN)NC(=O)[C@@H](NC(=O)[C@H](CCN)N(C)C(=O)CC[C@@H]2NC(=O)[C@H](CCN)NC(=O)[C@H](Cc3ccc(O)cc3)NC(=O)[C@H](CO)NC(=O)[C@H](CC(C)C)NC(=O)[C@@H]3CCCN3C(=O)[C@H]3CCCN3C(=O)[C@H](CO)NC(=O)[C@H]([C@@H](C)O)NC(=O)[C@H](C(C)C)NC(=O)[C@H](CCN)NC(=O)[C@H](Cc3c[nH]c4ccccc34)NC(=O)[C@H](CCN)NC(=O)[C@@H](CCN)NC2=O)[C@@H](C)O)CCNC(=O)[C@H]([C@@H](C)O)NC(=O)[C@H](CCN)NC(=O)[C@H](CCN)NC1=O [Ex. 89] (I: cyclo(LSY[Dab]E[dDab][Dab]W[Dab]VTS[dP]P) / II: [NMeDab]T[Dab][Dab][Dab][dL]L[Dab][Dab]T; amide I:5-II:N; lactam II:4-II:C) | 0.125 | 1 | 0.25 | 0.125 | 1 | 0.25 | 0.5 | 1

Continued, in another order:

Row | Acinetobacter baumannii DSM 30008 MIC [1] [µg/mL] | Escherichia coli 926415 MIC (Escherichia coli 926415) [µg/mL] | Pseudomonas aeruginosa ATCC 27853 MIC [2] [µg/mL] | Escherichia coli ATCC 25922 MIC [3] [µg/mL] | Acinetobacter baumannii 872842 MIC [4] [µg/mL] | Klebsiella pneumoniae SSI #3010 MIC [5] [µg/mL] | Klebsiella pneumoniae 968733 MIC [6] [µg/mL] | SMILES | Hemolysis at 100 μg/mL [7] [%]
6 | 0.125 | 0.25 | 0.25 | 0.125 | 0.25 | 0.125 | 0.25 | CC(C)C[C@@H]1NC(=O)[C@@H](CC(C)C)NC(=O)[C@H](CCN)NC(=O)[C@@H](NC(=O)[C@H](CCN)NC(=O)[C@@H](NC(=O)[C@H](CCN)NC(=O)CC[C@@H]2NC(=O)CNC(=O)[C@H](Cc3ccc(O)cc3)NC(=O)[C@H](CO)NC(=O)[C@H](CC(C)C)NC(=O)[C@@H]3CCCN3C(=O)[C@H]3CCCN3C(=O)[C@H](CO)NC(=O)[C@H]([C@@H](C)O)NC(=O)[C@H](C(C)C)NC(=O)[C@H](CCN)NC(=O)[C@H](Cc3c[nH]c4ccccc34)NC(=O)[C@H](CCN)NC(=O)[C@@H](CCN)NC2=O)[C@@H](C)O)CCNC(=O)[C@H]([C@@H](C)O)NC(=O)[C@H](CCN)NC(=O)[C@H](CCN)NC1=O [Ex. 90] (I: cyclo(LSYGE[dDab][Dab]W[Dab]VTS[dP]P) / II: [Dab]T[Dab][Dab][Dab][dL]L[Dab][Dab]T; amide I:5-II:N; lactam II:4-II:C) | 1
7 | 0.25 | 0.5 | 0.5 | 0.125 | 0.5 | 0.125 | 1 | CC(C)C[C@@H]1NC(=O)[C@@H](CC(C)C)NC(=O)[C@H](CCN)NC(=O)[C@@H](NC(=O)[C@H](CCN)NC(=O)[C@@H](NC(=O)[C@H](CCN)NC(=O)CC[C@@H]2NC(=O)[C@H](CCN)NC(=O)[C@H](Cc3ccc(O)cc3)NC(=O)[C@H]([C@@H](C)O)NC(=O)[C@H](CC(C)C)NC(=O)[C@@H]3CCCN3C(=O)[C@H]3CCCN3C(=O)[C@H](CO)NC(=O)[C@H]([C@@H](C)O)NC(=O)[C@H](C(C)C)NC(=O)[C@H](CCN)NC(=O)[C@H](Cc3c[nH]c4ccccc34)NC(=O)[C@H](CCN)NC(=O)[C@@H](CCN)NC2=O)[C@@H](C)O)CCNC(=O)[C@H]([C@@H](C)O)NC(=O)[C@H](CCN)NC(=O)[C@H](CCN)NC1=O [Ex. 91] (I: cyclo(LTY[Dab]E[dDab][Dab]W[Dab]VTS[dP]P) / II: [Dab]T[Dab][Dab][Dab][dL]L[Dab][Dab]T; amide I:5-II:N; lactam II:4-II:C) | 1
